Experiment [1] has as its target Mitogen-activated protein kinase kinase kinase 20 (Homo sapiens) (UniProt Q9NYL2). The experiment can be described thus: Selectivity interaction (Kinase panel (KiNativ target engagement assay in Jurkat cells)) EUB0001635a MAP3K20. Type of experiment: cell-based. Conditions: Selectivity number of off-targets 0.0, Selectivity number of targets 233.0, Source Knowledge https://www.sciencedirect.com/science/article/pii/S2451945619300674?via%3Dihub, at 1 µM.

Experiment [2] concerns the target T1, Tyrosine-protein kinase JAK3 (Homo sapiens) (UniProt P52333).
T1 sequence (whole entry): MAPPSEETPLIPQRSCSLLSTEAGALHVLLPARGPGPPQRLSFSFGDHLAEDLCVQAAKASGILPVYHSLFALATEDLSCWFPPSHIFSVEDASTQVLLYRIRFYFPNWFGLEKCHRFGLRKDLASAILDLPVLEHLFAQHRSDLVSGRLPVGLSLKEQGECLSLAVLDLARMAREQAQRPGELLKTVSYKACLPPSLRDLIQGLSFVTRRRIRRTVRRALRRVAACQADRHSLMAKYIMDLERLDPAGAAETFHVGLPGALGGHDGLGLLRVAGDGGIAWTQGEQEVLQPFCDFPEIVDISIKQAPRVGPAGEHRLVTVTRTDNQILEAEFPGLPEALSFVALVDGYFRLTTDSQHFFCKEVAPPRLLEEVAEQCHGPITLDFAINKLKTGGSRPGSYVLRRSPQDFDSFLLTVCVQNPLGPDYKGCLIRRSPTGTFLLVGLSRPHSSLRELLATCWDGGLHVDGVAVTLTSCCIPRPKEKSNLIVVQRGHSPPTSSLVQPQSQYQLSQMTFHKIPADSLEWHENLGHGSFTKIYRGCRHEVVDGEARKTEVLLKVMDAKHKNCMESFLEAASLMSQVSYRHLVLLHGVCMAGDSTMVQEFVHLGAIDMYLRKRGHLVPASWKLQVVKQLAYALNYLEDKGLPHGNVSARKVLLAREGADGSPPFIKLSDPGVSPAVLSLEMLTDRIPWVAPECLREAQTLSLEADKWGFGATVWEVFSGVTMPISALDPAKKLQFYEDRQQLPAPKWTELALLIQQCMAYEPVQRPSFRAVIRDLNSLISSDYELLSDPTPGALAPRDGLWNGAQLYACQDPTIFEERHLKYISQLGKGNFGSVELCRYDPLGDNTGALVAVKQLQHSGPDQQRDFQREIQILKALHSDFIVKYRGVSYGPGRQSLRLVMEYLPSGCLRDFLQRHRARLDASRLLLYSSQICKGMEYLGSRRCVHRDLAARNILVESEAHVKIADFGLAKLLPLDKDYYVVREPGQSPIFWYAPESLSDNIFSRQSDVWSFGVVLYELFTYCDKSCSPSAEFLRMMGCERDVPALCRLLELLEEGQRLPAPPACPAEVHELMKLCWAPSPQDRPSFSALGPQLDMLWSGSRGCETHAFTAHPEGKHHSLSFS
The experiment can be described thus: Selectivity interaction (SelectScreen profiling (Invitrogen)) EUB0000607a JAK3. Conditions: at 2 µM.

In experiment [3] the target is Serine/threonine-protein kinase 25 (Homo sapiens) (UniProt O00506). Briefly: Selectivity interaction (SelectScreen profiling (Invitrogen)) EUB0000607a STK25. Conditions: at 2 µM.
Experiment [4] has as its target T2, NUAK family SNF1-like kinase 1 (Homo sapiens) (UniProt O60285).
T2 sequence (whole entry): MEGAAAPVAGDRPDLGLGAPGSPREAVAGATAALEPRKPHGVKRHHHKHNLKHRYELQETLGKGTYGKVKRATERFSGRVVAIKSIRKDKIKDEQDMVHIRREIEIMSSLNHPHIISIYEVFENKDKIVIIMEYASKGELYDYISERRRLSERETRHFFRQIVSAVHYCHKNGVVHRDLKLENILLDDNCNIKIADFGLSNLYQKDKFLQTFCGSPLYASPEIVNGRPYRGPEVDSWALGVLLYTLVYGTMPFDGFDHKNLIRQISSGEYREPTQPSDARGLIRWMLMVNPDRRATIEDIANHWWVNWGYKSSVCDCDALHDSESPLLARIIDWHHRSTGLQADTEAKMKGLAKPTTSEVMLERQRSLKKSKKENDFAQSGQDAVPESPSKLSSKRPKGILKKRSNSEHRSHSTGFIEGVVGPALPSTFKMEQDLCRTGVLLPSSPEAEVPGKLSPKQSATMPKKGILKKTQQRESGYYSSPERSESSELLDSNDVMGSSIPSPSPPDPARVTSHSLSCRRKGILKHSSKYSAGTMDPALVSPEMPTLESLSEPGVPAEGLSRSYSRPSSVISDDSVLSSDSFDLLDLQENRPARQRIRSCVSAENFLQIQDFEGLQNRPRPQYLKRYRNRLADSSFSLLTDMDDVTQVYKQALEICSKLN
Conditions: at 10 µM.

The target of experiment [5] is Mitogen-activated protein kinase 9 (Homo sapiens, UniProt P45984). Briefly: Selectivity interaction (KinomeScan (DiscoverX)) EUB0000666a MAPK9. Conditions: at 10 µM.
Experiment [6] concerns the target Ribosomal protein S6 kinase beta-1 (Homo sapiens, UniProt P23443). The experiment can be described thus: Selectivity interaction (Kinase panel (literature)) EUB0001199aCl RPS6KB1. Conditions: at 1 µM.
The target in experiment [7] is Ribosomal protein S6 kinase alpha-3 (Homo sapiens, UniProt P51812). The experiment can be described thus: Selectivity interaction (ActivX KiNativ screen (kinase selectivity in THP-1 cell lysates)) EUB0000639a RPS6KA3. Conditions: lysate, at 1 µM. Type of experiment: subcellular.
For experiment [8], the target named is T3, Serine/threonine-protein kinase DCLK1 (Homo sapiens) (UniProt O15075).
T3 sequence (whole entry): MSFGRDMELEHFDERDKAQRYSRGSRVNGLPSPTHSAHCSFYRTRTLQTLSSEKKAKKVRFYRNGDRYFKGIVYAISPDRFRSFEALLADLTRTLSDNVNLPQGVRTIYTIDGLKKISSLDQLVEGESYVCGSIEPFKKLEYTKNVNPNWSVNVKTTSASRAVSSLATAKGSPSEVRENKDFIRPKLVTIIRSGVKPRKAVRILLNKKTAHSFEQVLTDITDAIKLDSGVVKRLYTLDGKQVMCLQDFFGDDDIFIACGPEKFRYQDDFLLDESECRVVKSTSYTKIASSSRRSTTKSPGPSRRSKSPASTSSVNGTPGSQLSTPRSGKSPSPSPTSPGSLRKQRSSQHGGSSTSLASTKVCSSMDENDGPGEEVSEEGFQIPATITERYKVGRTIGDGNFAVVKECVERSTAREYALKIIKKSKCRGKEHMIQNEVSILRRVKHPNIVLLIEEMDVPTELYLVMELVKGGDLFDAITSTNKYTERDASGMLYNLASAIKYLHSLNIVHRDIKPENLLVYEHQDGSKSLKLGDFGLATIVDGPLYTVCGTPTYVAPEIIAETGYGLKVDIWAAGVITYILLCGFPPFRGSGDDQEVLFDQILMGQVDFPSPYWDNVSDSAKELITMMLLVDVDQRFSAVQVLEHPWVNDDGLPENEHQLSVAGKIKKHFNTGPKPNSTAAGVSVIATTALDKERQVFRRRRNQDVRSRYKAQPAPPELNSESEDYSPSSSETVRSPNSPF
The experiment can be described thus: Selectivity interaction (KinomeScan (DiscoverX)) EUB0001049a DCLK1. Conditions: at 1 µM.

Mitogen-activated protein kinase 9, sequence (P45984 whole entry, looked up): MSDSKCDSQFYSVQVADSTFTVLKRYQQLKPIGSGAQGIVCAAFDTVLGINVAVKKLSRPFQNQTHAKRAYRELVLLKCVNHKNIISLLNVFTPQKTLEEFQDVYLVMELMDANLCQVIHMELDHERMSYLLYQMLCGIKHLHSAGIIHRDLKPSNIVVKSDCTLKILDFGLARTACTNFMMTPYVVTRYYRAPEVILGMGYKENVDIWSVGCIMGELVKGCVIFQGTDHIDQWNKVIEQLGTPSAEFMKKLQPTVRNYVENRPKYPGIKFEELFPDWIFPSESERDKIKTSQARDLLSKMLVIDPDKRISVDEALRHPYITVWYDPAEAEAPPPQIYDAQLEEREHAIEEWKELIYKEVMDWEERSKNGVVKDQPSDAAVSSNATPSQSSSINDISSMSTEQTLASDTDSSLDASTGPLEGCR
Serine/threonine-protein kinase 25 (Homo sapiens), sequence (O00506 whole entry, looked up): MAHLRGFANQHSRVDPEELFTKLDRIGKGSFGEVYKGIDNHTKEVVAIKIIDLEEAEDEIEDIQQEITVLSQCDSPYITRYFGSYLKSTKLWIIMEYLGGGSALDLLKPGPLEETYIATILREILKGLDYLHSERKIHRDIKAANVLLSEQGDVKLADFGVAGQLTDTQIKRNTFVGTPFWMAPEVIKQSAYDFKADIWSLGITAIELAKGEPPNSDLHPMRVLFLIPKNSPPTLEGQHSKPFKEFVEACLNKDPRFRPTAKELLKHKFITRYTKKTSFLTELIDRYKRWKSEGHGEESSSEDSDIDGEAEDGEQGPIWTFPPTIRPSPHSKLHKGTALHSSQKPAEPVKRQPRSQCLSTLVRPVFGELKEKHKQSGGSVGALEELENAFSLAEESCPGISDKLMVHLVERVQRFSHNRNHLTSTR
Ribosomal protein S6 kinase beta-1, sequence (P23443 whole entry, looked up): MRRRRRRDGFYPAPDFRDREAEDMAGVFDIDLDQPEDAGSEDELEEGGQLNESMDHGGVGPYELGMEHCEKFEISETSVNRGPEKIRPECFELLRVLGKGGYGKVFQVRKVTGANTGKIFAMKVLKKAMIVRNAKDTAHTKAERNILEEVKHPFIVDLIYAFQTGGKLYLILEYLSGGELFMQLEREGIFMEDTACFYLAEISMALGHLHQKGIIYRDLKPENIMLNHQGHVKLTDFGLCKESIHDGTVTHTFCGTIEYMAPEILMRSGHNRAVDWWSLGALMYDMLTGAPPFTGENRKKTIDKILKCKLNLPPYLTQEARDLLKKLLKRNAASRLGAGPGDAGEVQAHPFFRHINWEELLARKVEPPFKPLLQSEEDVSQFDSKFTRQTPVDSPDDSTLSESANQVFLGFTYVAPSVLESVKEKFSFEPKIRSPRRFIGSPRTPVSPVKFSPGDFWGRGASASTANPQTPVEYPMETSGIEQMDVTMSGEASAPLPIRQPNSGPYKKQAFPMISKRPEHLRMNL
Mitogen-activated protein kinase kinase kinase 20 (Homo sapiens), sequence (Q9NYL2 2-800 limits assumed): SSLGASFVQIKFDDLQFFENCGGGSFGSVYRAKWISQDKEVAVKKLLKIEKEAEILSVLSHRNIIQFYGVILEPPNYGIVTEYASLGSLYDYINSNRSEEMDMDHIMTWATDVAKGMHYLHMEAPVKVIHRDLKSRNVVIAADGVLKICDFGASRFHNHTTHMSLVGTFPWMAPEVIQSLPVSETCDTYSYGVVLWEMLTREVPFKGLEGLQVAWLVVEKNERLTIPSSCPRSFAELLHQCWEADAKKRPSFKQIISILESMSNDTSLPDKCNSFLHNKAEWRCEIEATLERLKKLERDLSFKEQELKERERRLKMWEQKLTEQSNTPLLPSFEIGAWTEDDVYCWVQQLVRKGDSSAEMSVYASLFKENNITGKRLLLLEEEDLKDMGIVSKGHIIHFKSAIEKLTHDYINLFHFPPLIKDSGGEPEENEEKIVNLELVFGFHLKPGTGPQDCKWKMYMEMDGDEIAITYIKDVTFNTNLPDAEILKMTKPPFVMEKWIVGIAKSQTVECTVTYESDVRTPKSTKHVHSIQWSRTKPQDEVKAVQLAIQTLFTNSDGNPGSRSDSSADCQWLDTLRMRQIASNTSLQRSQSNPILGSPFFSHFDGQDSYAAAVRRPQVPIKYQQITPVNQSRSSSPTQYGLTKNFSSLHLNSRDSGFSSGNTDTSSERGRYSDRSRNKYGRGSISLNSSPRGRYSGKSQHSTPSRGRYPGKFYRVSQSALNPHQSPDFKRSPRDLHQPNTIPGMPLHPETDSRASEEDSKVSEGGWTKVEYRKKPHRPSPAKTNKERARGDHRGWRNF
Ribosomal protein S6 kinase alpha-3, sequence (P51812 whole entry): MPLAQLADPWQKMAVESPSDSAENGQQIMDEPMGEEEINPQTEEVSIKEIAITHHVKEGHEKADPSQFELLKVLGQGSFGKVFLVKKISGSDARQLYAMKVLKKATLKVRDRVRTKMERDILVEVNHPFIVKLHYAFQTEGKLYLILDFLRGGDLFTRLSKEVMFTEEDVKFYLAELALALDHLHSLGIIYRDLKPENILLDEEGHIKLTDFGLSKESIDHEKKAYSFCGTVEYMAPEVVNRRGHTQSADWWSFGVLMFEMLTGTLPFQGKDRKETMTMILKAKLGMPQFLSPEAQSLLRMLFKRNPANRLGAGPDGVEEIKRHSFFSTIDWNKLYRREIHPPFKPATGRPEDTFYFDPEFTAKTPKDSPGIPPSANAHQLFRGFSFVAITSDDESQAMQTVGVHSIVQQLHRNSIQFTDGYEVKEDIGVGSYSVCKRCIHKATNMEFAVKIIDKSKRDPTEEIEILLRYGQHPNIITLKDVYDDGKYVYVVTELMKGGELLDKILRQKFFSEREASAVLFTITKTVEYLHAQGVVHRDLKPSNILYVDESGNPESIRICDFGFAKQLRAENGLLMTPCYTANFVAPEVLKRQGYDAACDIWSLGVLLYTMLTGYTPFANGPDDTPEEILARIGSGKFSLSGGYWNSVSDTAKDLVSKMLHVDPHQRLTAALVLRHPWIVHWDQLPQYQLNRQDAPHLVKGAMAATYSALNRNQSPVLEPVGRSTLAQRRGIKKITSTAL

In the case of `C=CC(=O)Nc1ccc(C(=O)Nc2[nH]nc3c2CN(C(=O)N[C@H](CN(C)C)c2ccccc2)C3(C)C)cc1`, in experiment [1], the % of engagement is -9.7%.

`CNC(=O)Nc1ccc(-c2nc(N3CC4CCC(C3)O4)c3cnn(C4CCC5(CC4)OCCO5)c3n2)cc1`: the % of inhibition in experiment [2] stood at 0%; in experiment [3], 2%.

On to `Cc1cc([C@@H](C)Nc2ccccc2C(=O)O)c2nc(N3CCOCC3)cc(=O)n2c1` [AZD-6482], for which, in experiment [4], the % of control is 100%. For `O=C(NOC[C@H](O)CO)c1ccc(F)c(F)c1Nc1ccc(I)cc1F`, in experiment [5], the % of control came out at 88%. Turning to `CN1Cc2nccc(-c3cn(C)nc3-c3ccc(F)cc3)c2C1=O`, the % of inhibition in experiment [6] was -3%. For the molecule `CC[C@@H]1[C@H](F)C(=O)N[C@@H]1COc1nccc2cc(C(N)=O)c(OC)cc12` [ZIMLOVISERTIB], the % of inhibition in experiment [7] was -8.2%.

`COc1cc(Nc2nc(C)cc(-c3cnn4nc(OC)ccc34)n2)cc(C(F)(F)F)c1` registered a % of control in experiment [8] of 69%.

For the origin of these results see ChEMBL document CHEMBL5465560, “Selectivity Literature for EUbOPEN Chemogenomic Library” (2024).
